Test results as given in patent publication US12049583B2, “Compound, composition for anisotropic dye films including the compound, anisotropic dye film, and optical element” (Mitsubishi Chemical Corporation, priority 2020, dated 2024).

How the values were obtained:
[1] = Solubility of the dye in toluene (concentration of toluene-saturated solution by HPLC); type: physicochemical
Method: To 101 mg of toluene, 3 mg of the dye (II-1) was added, and the resulting mixture was stirred at 80° C. for 5 minutes. The mixture was left to stand for 1 hour at room temperature. The resulting liquid mixture was filtered with a syringe equipped with a syringe filter (produced by Membrane Solutions Limited, PTFE13045, diameter: 0.45 μm). Hereby, a toluene-saturated solution of the dye (II-1) was prepared. The above solution was diluted with 767 mg of tetrahydrofuran, and the concentration of the solution was determined using HPLC (L-2300 Series produced by Hitachi High-Technologies Corporation). A 0.1-mass % tetrahydrofuran solution of the dye (II-1) was prepared, and a calibration curve was prepared at an absorption wavelength of 254 nm. Table 1 lists the results of measurement of the concentration of the toluene-saturated solution using the above calibration curve.

[2] = Solubility of the dye in cyclopentanone (concentration of cyclopentanone-saturated solution by HPLC); type: physicochemical
Method: To 103 mg of cyclopentanone, 3 mg of the dye (IV-1) was added, and the resulting mixture was stirred at 80° C. for 5 minutes. The mixture was left to stand for 1 hour at room temperature. The resulting liquid mixture was filtered with a syringe equipped with a syringe filter (produced by Membrane Solutions Limited, PTFE13045, diameter: 0.45 μm). Hereby, a cyclopentanone-saturated solution of the dye (IV-1) was prepared. The above solution was diluted with 746 mg of tetrahydrofuran, and the concentration of the solution was determined using HPLC (L-2300 Series produced by Hitachi High-Technologies Corporation). A 0.1-mass % tetrahydrofuran solution of the dye (IV-1) was prepared, and a calibration curve was prepared at an absorption wavelength of 254 nm. The concentration of the cyclopentanone-saturated solution was measured using the above calibration curve.

[3] = toluene-saturated solution, stirred at 80° C. 5 min, left 1 hour at room temperature, filtered, HPLC 254 nm
[4] = cyclopentanone-saturated solution, stirred at 80° C. 5 min, left 1 hour at room temperature, filtered, HPLC 254 nm

Row | SMILES | Solubility of the dye in toluene [1, 3] | Solubility of the dye in cyclopentanone [2, 4] | also measured
1 | CCN(CC)c1ccc(/N=N/c2ccc(/N=N/c3nc4sc(CCC(C)CC(C)(C)C)cc4s3)cc2)cc1 (centres unmarked) [II-1] | 0.5 mass % | – | –
2 | CCN(CC)c1ccc(/N=N/c2ccc(/N=N/c3nc4sc(CCC(C)C)cc4s3)cc2)cc1 [II-2] | 0.7 mass % | – | Solubility of the dye in toluene ([1]; measured as for dye (II-1), detection absorption wavelength 254 nm): 0.7%
3 | CCN(CC)c1ccc(/N=N/c2nc3sc(/N=N/c4ccc(OCCC(C)CC(C)(C)C)cc4)cc3s2)cc1 (centres unmarked) [II-3] | – | 0.3 mass % | Solubility of the dye in cyclopentanone ([2]; measured as for dye (IV-1), detection absorption wavelength 254 nm): 0.3%
4 | CCCCSc1nnc(/N=N/c2ccc(/N=N/c3ccc(N(CC)CC)cc3)cc2)s1 [IV-2] | – | 2.2 mass % | –
5 | CCN(CC)c1ccc(/N=N/c2ccc(/N=N/c3sc(C)cc3C#N)cc2)cc1 [IV-3] | – | 2.7 mass % | –
6 | CCN(CC)c1ccc(/N=N/c2ccc(/N=N/c3cc(C)ns3)cc2)cc1 [IV-4] | – | 1.8 mass % | –
